According to US12600741B2, “3-phenoxybenzoic acid-glucuronic acid conjugate, and preparation method and use thereof” (Shanxi Medical University, priority 2023, dated 2026):

Experiment: In vitro liver microsome experiment (glucuronidation with UDPGA, UPLC-MS/MS detection)
Type: in vitro ADME
Details: pooled human liver microsomes, alamethicin, 37° C., incubation 0 min and 6 h
Procedure: In Vitro Liver Microsome Experiment
Experimental group: 136 μL of 50 mM Tris buffer was added to a 1.5 mL centrifuge tube, added with 20 μL of 100 mM aqueous D-glucaro-1,4-lactone solution, 10 μL of 10 mM aqueous magnesium chloride (MgCl2) solution, 10 μL of 40 mg/mL pooled human liver microsomes, and 2 μL of 50 mg/mL alamethicin, respectively, and preincubated on ice for 15 min; 2 μL of 2 mg/mL substrate (3-PBA) was added, and preincubated with 100 mM uridine diphosphate glucuronic acid (UDPGA) solution for 5 min at 37° C.; 20 μL of preincubated UDPGA solution was added to the reaction system to start the reaction, and incubation proceeded. At 0 min and 6 h, 200 μL of glacial acetonitrile was added to the reaction system to terminate the reaction, respectively. The reaction system was vortexed for 1 min and centrifuged at 13,000 r/min for 10 min at 4° C. All supernatants were put in a test tube, nitrogen-blown at 37° C., and reconstituted with 200 μL of methanol. The samples were analyzed and detected by UPLC-MS/MS. The difference between the blank group and the experimental group was only that 3-PBA was not added, and the difference between the control group and the experimental group was only that UDPGA was not added. […]

CC1(C)Cc2cccc(O)c2O1 [carbofuran phenol]
phase II metabolism (formation of glucuronic acid conjugate) detected by UPLC-MS/MS: carbofuran phenol-glucuronic acid conjugate was detected

O=C(O)c1cccc(Oc2ccccc2)c1 [3-PBA, 3-phenoxybenzoic acid]
phase II metabolism (formation of glucuronic acid conjugate) detected by UPLC-MS/MS: underwent phase II metabolic reaction
